Data: US20060281806A1, “Treatment and inhibition of disease conditions using flexible heteroarotinoids” (priority 2005, published 2006)

Columns and labels:
[1] = test system: EAhy.926 endothelial cells; test: Growth/viability of endothelial cells versus ovarian cancer cell lines; format: cell-based; details: SHetA2 for 24 hours
Experimental: The graph on the left provides quantification of the endothelial branches for each treatment dose.
The increased thickness of the vessels at 1 μM and the increasing proportions of solitary clumps of cells at 5 and 10 μM indicate that SHetA2 is inhibiting endothelial cell migration. To determine if this anti-angiogenic activity was due to growth inhibition or cytotoxicity. The viability of the endothelial cells treated with SHetA2 for 24 hours was evaluated. […] This confirms the therapeutic ratio observed in previous studies.

[2] = test system: blood vessel density in bFGF/VEGF-treated CAMs; test: Chorioallantoic membrane (CAM) assay; format: in vivo, chick; details: 5 μM SHetA2; versus bFGF/VEGF-treated CAMs
Experimental: FIG. 8. Effect of 5 μM SHetA2 on blood vessel density in the CAM assay. The mean± SEM blood vessel density per treatment as compared to bFGF/VEGF-treated CAMs; *=p<0.05 and **=p<0.001 as compared to bFGF/VEGF-treated CAMs as determined by one-way ANOVA and Neuman-Keuls post-test.
The CAM assay that was used is based upon the original procedure by Jakob et al. (36) with modifications made by our laboratory (37, 38) (see FIG. 8).

[3] = test system: C6 glioma cells injected into the brains of rats; test: Rat glioma (brain cancer) model, MRI; format: in vivo; details: Monday, Wednesday and Friday
Experimental: FIG. 9. SHetA2 inhibition of Angiogenesis. C6 glioma cells were injected into the brains of 2 rats. One week later, one rat was gavaged with 60 mg/kg/day SHetA2 on each Monday, Wednesday and Friday. Blood vessels were imaged by MRI.
FIG. 10. […] C6 glioma cells were injected into the brains of 2 rats. One week later, one rat was gavaged with 60 mg/kg/day SHetA2 on each Monday, Wednesday and Friday. The blood flow was measured by MRI imaging.
FIG. 11. SHetA2 inhibition of glioma tumor growth. C6 glioma cells were injected into the brains of 2 rats. One week later, one rat was gavaged with 60 mg/kg/day SHetA2 on each Monday, Wednesday and Friday. The tumor size was measured by MRI imaging.
In this in vivo model, glioma cells are injected into the brains of rats and the growth of the tumor and development of blood vessels in the tumor is measured by magnetic resonance imaging (MRI).

[4] = test system: human Caki renal cancer xenografts; test: Caki renal cancer xenograft model; format: in vivo, mouse
Experimental: FIG. 12. Various Xenograft tumors stained with CD34 antibodies (brown) to identify endothelium. The B16 mouse melanoma cell line was established as a syngeneic tumor in an immunocompetent mouse model and the human Caki renal cancer and A2780 ovarian xenograft tumors in immunocompromised mice. The treated mice were gavaged with 60 mg/kg/day SHetA2 and the untreated were gavaged with solvent only. The tumors were excised and sections were stained with the anti-CD34 antibody to detect endothelial cells (brown stain).
FIG. 20. Mice harboring Caki renal cancer xenografts were treated with 60 mg/kg/day SHetA2 or PEG400 vehicle for 15 days. After another 15 days of growth, the tumors were removed, fixed, embedded and sections. Sections were stained with PAS to identify glycoproteins and lysosomes. The untreated tumor is on the left and the treated tumor is on the right.
Survival was the primary endpoint of those studies. […] Tumor growth was the primary endpoint of the renal cancer study.

[5] = test system: Thymidine Phosphorylase (TP); test: Real time rt-PCR and Western blot validation, TP; format: cell-based; details: 1 μM (rt-PCR, OVCAR-3) and 10 μM (Western blot, A2780)
Experimental: FIG. 13. Real Time rt-PCR validation of SHetA2 inhibition of TP and TSP-1 mRNA Expression. OVCAR-3 cultures were treated with 1 μM SHetA2 for the indicated period of time prior to harvesting the cells and isolating RNA. cDNA was prepared and used in real time rt-PCR reactions. Real time rt-PCR was performed on CDNA from cultures various treatment times.
FIG. 14. Western blot validation of SHetA2 inhibition of TP and TSP4 protein expression. A2780 ovarian cancer cells were treated with 10 μM SHetA2 for the indicated amounts of time. Equal amounts of whole cell protein extracts were evaluated by Western blot.

[6] = test system: organotypic cultures of normal endometrial cells treated with DMBA; test: Chemoprevention in DMBA-treated organotypic cultures of normal endometrial cells; format: cell-based; details: histology and karyometric analysis
Excerpt: Untreated: The specimen is cellular with both surface and mid-gel cells presence in abundance. Two cell types are clearly present. One appears to be stromal. The nuclei are thin and spindle shaped and the cytoplasm is similar. When cut in cross-section the nuclei are very small and round and hyperchromatic. The other cells have large, oval to almost boxcar nuclei with small nucleoli and abundant cytoplasm. Numerous mitosis are present. The epithelial cells are almost syncitial in nature and appear to cling to one another. With DMBA Carcinogen: The specimen is cellular. The cells present have lost their cytoplasm. There is more pleomorphism of the cells and many are very hyperchromatic. Mitoses are very numerous-approximately 2× the number in untreated. Cells no longer are together but are distinct one from another. Stromal cells intermix with the epithelial cells. […]
FIG. 19 illustrates a typical experiment in which organotypic cultures of normal endometrial cells were treated with a carcinogen called DMBA and developed the cancer phenotype. […] All segmented nuclei were then subjected to texture feature extraction using TICAS software, resulting in 95 textrue features for each nucleus that were subjected to quantitative analysis.

[7] = oral 60 mg/kg/day, versus untreated control

## CC1(C)CC(C)(C)c2cc(NC(=S)Nc3ccc([N+](=O)[O-])cc3)ccc2S1 [SHetA2]
[1]
  growth inhibition of endothelial cells compared with A2780 and OVCAR-3: much less growth inhibited
[2]
  angiogenesis (blood vessel density) in CAM assay: inhibits angiogenesis
[3]; gavage 60 mg/kg/day
  blood flow (MRI): inhibition of blood flow
[3]; [7]
  angiogenesis of glioma tumors (MRI): inhibited
  growth of glioma tumors (MRI): inhibited
[4]; renal cancer model, oral 60 mg/kg/day
  tumor growth: decreased tumor growth
[4]; renal xenograft tumors, 60 mg/kg/day for 15 days, versus untreated tumors
  PAS stain: general glycoprotein expression and lysosomal staining: increase in general glycoprotein expression and lysosomal staining
[4]; renal, oral 60 mg/kg/day
  development of blood vessels inside tumors (anti-CD34 staining): inhibited the development of blood vessels
[5]
  expression of TP at the RNA and protein levels: inhibit expression
[6]
  development of the DMBA-induced cancer phenotype: prevented the development of this phenotype
